Measured values taken from patent publication US12187723B2 (BRISTOL-MYERS SQUIBB COMPANY, priority 2019, dated 2025).

Target: T1, human TLR7 (Homo sapiens, UniProt Q9NYK1)
T1 construct: host or cells: HEK-Blue cells
T1 sequence (Q9NYK1 27-1049): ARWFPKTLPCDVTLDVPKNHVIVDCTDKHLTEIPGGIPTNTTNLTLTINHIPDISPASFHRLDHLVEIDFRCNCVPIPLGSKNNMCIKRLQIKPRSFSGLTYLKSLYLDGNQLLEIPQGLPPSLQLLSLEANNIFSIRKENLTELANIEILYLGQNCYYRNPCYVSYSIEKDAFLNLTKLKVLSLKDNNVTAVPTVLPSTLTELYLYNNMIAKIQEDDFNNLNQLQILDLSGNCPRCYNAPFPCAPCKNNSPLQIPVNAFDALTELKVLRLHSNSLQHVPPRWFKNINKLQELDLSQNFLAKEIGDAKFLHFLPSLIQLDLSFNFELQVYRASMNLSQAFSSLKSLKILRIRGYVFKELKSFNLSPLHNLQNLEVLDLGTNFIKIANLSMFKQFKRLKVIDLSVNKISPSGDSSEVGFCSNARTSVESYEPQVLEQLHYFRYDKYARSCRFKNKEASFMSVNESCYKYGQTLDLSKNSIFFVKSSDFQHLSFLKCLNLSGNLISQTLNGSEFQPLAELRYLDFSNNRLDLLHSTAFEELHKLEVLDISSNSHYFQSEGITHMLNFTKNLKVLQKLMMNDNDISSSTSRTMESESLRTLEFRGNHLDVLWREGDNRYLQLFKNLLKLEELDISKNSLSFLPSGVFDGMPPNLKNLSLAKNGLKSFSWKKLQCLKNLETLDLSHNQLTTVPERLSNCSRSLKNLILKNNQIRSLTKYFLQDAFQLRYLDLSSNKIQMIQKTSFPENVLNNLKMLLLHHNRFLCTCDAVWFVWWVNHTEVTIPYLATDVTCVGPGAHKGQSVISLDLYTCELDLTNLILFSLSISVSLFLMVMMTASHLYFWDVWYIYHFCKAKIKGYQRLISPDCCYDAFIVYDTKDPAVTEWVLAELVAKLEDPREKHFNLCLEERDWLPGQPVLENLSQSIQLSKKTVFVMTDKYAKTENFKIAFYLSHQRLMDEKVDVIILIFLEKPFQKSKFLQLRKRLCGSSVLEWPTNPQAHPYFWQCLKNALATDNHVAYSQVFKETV
Assay: TLR7 inhibition reporter assay (HEK-Blue SEAP)
Type: cell-based
Conditions: HEK-Blue cells overexpressing human TLR7, gardiquimod 7.5 μM, 22 hour incubation
How it was run: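 Dose-response testing from 0.05 nM to 50 μM final was done on reporter cells for 22 hours at 37° C. Secreted SEAP was then detected, and inhibition was calculated as percent reduction of the agonist-plus-DMSO signal compared with wells given a known inhibitor.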

Row | IC50 [nM] | SMILES
1 | 11.9 | COc1cc(-c2cc3[nH]c(=O)n(C4CCC(N5CCC(S(C)(=O)=O)C5)CC4)c3cc2C(C)C)cn2ncnc12 (single isomer, unassigned) [Example 289, 6-isopropyl-5-(8-methoxy-[1,2,4]triazolo[1,5-a]pyridin-6-yl)-1-(4-(3-(methylsulfonyl)pyrrolidin-1-yl)cyclohexyl)-1,3-dihydro-2H-benzo[d]imidazol-2-one]
2 | 37.1 | COc1cc(-c2cc3[nH]c(=O)n(C4CCC(N5CC(F)(F)C5)CC4)c3cc2C(C)C)cn2ncnc12 (single isomer, unassigned) [Example 297]
3 | 2.81 | COc1cc(-c2cc3[nH]c(=O)n(C4CCC(N5CCC(F)(F)CC5)CC4)c3cc2C(C)C)cn2ncnc12 (single isomer, unassigned) [Example 246, 1-(4-(4,4-difluoropiperidin-1-yl)cyclohexyl)-6-isopropyl-5-(8-methoxy-[1,2,4]triazolo[1,5-a]pyridin-6-yl)-1,3-dihydro-2H-benzo[d]imidazol-2-one]
4 | 16.5 | Cc1c(-c2cc3[nH]c(=O)n(C4CCC(N5CC6(COC6)C5)CC4)c3cc2C(C)C)cn2ncnc2c1C (single isomer, unassigned) [Example 298]
5 | 1.2 | COc1cc(-c2cc3[nH]c(=O)n(C4CCC(N5CCC(F)(F)C5)CC4)c3cc2C(C)C)cn2ncnc12 (single isomer, unassigned) [Example 294, 1-(4-(3,3-difluoropyrrolidin-1-yl)cyclohexyl)-6-isopropyl-5-(8-methoxy-[1,2,4]triazolo[1,5-a]pyridin-6-yl)-1,3-dihydro-2H-benzo[d]imidazol-2-one]
6 | 2.1 | COc1c(C)c(-c2cc3[nH]c(=O)n(C4CCC(N5CCC6(CC5)COC6)CC4)c3cc2C(C)C)cn2ncnc12 (single isomer, unassigned) [Example 267, 1-(4-(2-oxa-7-azaspiro[3.5]nonan-7-yl)cyclohexyl)-6-isopropyl-5-(8-methoxy-7-methyl-[1,2,4]triazolo[1,5-a]pyridin-6-yl)-1,3-dihydro-2H-benzo[d]imidazol-2-one]
